These results are taken from patent US20100292231A1, “Indazole Compounds for Treating Inflammatory Disorders, Demyelinating Disorders and Cancers” (priority 2007, published 2010).

Assay in all cases: SelectScreen kinase specificity survey
Common to all, as to assay type: biochemical

The target of assay [1] is T1, ADRBK2 (BARK2, GRK3) (Homo sapiens, UniProt P35626).
T1 construct: purchased Invitrogen (SelectScreen platform)
The method, boiled down: (§1)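 230-kinase panel; kinase-specific substrate plus optical reporter; ATP 100 micromolar; 5-point inhibitor titration; 4-parameter Hill fit gives estimated EC50.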

Assay [2] concerns the target T2, AXL (Homo sapiens, UniProt P30530).
T2 construct: purchased Invitrogen (SelectScreen service)
The settings on record: estimated, abridged dose response curve, read-out: Kinase inhibitory activity EC50. A digest of the protocol:
as §1

Assay [3] concerns the target T3, BMX (Homo sapiens, UniProt P51813).
T3 construct: purchased Invitrogen (SelectScreen)
The following applies: estimated, abridged dose response curve, read-out: Kinase inhibitory activity EC50. The method, boiled down: as §1

Assay [4] has as its target T4, CSNK1G3 (CK1 gamma 3) (Homo sapiens, UniProt Q9Y6M4).
T4 construct: purchased Invitrogen (SelectScreen platform)
The settings on record: estimated, abridged dose response curve, read-out: Kinase inhibitory activity EC50. A digest of the protocol: as §1

For assay [5], the target named is T5, DYRK4 (Homo sapiens, UniProt Q9NR20).
T5 construct: purchased Invitrogen (SelectScreen platform)
The method, boiled down: as §1

The target of assay [6] is T6, FGR (Homo sapiens, UniProt P09769).
T6 construct: purchased Invitrogen (SelectScreen)
The following applies: estimated, abridged dose response curve, read-out: Kinase inhibitory activity EC50. A digest of the protocol:
as §1

The target in assay [7] is T7, FLT3 (Homo sapiens, UniProt P36888).
T7 construct: purchased Invitrogen (SelectScreen platform)
T7 sequence (P36888 27-993): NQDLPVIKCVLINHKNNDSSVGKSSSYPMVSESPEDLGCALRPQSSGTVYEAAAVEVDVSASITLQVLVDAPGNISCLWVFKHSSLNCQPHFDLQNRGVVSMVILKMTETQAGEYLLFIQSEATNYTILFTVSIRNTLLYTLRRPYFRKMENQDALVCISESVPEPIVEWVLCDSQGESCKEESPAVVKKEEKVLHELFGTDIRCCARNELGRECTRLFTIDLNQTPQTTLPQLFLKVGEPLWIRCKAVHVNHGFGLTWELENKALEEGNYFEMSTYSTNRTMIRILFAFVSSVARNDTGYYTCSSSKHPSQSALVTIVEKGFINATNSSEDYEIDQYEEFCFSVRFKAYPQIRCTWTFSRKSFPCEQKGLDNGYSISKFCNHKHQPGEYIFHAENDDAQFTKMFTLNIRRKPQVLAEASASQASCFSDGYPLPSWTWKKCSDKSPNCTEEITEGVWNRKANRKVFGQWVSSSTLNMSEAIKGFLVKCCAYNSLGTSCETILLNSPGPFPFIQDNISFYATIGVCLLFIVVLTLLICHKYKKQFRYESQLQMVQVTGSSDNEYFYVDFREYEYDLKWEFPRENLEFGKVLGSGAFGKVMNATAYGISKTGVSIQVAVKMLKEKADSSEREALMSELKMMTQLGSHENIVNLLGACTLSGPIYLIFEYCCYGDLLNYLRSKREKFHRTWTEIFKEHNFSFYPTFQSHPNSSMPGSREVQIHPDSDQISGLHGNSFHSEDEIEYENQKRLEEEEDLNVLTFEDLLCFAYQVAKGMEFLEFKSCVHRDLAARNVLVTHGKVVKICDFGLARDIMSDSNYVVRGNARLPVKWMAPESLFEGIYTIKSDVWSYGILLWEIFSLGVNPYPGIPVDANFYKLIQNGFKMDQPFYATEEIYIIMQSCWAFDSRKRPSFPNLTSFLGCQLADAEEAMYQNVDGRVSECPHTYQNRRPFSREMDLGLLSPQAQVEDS
The following applies: estimated, abridged dose response curve, read-out: Kinase inhibitory activity EC50. A digest of the protocol:
as §1

Assay [8] concerns the target T8, FLT4 (VEGFR3) (Homo sapiens, UniProt P35916).
T8 construct: purchased Invitrogen, Inc. (SelectScreen platform)
The following applies: estimated, abridged dose response curve, read-out: Kinase inhibitory activity EC50. The method, boiled down:
as §1

For assay [9], the target named is T9, GRK4 (Homo sapiens, UniProt P32298).
T9 construct: purchased Invitrogen (SelectScreen platform)
T9 sequence (P32298 whole entry): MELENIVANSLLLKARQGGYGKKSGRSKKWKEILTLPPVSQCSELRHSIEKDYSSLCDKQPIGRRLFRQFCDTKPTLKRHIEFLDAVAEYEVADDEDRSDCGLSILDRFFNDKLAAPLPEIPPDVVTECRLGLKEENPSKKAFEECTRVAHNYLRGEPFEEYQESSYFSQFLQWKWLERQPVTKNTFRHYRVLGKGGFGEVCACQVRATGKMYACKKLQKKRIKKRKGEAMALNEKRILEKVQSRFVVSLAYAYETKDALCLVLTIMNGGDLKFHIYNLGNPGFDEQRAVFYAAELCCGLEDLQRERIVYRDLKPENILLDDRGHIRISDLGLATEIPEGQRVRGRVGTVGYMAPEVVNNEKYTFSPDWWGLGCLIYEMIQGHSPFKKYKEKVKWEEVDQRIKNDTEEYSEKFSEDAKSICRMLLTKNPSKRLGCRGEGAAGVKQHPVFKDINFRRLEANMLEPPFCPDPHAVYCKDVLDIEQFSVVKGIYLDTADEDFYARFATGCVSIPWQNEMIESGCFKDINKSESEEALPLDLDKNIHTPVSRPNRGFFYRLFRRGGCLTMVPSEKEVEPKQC
The method, boiled down:
as §1

The target in assay [10] is T10, HIPK4 (Homo sapiens, UniProt Q8NE63).
T10 construct: purchased Invitrogen (SelectScreen platform)
The following applies: estimated, abridged dose response curve, read-out: Kinase inhibitory activity EC50. The method, boiled down:
as §1

Assay [11] addresses T11, INSRR (IRR) (Homo sapiens, UniProt P14616).
T11 construct: purchased Invitrogen (SelectScreen platform)
The settings on record: estimated, abridged dose response curve, read-out: Kinase inhibitory activity EC50. The method, boiled down: as §1

Assay [12] has as its target T12, JAK3 (Homo sapiens, UniProt P52333).
T12 construct: purchased Invitrogen (SelectScreen platform)
The following applies: estimated, abridged dose response curve, read-out: Kinase inhibitory activity EC50. A digest of the protocol:
as §1

Assay [13] concerns the target T13, PAK6 (Homo sapiens, UniProt Q9NQU5).
T13 construct: purchased Invitrogen (SelectScreen platform)
The following applies: estimated, abridged dose response curve, read-out: Kinase inhibitory activity EC50. A digest of the protocol: as §1

In assay [14] the target is T14, PRKCH (PKC eta) (Homo sapiens, UniProt P24723).
T14 construct: purchased Invitrogen, Inc. (SelectScreen platform)
T14 sequence (P24723 whole entry): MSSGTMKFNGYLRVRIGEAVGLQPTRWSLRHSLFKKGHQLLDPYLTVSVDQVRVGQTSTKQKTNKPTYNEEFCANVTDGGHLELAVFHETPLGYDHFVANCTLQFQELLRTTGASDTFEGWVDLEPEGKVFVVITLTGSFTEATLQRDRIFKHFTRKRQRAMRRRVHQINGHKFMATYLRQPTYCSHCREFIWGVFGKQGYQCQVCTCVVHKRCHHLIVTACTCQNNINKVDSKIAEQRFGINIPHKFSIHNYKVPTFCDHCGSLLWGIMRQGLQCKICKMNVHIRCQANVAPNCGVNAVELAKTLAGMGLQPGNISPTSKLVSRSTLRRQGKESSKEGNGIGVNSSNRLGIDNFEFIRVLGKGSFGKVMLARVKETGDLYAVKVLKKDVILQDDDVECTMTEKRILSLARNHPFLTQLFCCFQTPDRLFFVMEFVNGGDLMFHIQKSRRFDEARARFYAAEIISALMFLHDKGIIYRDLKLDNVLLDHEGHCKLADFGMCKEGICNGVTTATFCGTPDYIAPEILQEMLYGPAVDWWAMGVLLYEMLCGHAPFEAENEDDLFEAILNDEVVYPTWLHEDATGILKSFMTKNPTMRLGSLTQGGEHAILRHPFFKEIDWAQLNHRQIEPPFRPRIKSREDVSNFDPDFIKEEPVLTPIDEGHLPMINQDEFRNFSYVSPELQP
The settings on record: estimated, abridged dose response curve, read-out: Kinase inhibitory activity EC50. The method, boiled down: as §1

The target in assay [15] is T15, STK22D (TSSK1) (Homo sapiens, UniProt Q9BXA7).
T15 construct: purchased Invitrogen, Inc. (SelectScreen platform)
The settings on record: estimated, abridged dose response curve, read-out: Kinase inhibitory activity EC50. The method, boiled down: as §1

Like-named read-outs stand apart in the source and are kept apart here. Where only a bound is given, the exact number is not on record here.

T1 sequence (P35626 whole entry): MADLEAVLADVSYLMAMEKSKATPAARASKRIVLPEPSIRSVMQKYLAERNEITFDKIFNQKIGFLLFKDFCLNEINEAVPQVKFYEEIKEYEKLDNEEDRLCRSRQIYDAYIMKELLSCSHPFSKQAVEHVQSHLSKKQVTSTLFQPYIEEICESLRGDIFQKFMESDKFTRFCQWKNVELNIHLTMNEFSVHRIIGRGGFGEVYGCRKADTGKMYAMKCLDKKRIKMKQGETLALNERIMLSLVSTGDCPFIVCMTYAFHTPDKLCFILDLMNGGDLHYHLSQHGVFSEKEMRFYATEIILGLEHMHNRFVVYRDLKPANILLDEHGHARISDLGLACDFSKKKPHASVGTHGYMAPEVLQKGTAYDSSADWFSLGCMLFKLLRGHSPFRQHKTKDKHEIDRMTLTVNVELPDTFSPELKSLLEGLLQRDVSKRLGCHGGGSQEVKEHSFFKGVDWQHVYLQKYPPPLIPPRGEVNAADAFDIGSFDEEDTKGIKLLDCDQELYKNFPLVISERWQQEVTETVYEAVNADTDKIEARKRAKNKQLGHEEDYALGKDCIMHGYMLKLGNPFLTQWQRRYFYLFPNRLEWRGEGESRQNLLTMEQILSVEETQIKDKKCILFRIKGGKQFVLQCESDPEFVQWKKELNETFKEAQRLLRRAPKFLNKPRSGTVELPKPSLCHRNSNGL
T2 sequence (P30530 26-894): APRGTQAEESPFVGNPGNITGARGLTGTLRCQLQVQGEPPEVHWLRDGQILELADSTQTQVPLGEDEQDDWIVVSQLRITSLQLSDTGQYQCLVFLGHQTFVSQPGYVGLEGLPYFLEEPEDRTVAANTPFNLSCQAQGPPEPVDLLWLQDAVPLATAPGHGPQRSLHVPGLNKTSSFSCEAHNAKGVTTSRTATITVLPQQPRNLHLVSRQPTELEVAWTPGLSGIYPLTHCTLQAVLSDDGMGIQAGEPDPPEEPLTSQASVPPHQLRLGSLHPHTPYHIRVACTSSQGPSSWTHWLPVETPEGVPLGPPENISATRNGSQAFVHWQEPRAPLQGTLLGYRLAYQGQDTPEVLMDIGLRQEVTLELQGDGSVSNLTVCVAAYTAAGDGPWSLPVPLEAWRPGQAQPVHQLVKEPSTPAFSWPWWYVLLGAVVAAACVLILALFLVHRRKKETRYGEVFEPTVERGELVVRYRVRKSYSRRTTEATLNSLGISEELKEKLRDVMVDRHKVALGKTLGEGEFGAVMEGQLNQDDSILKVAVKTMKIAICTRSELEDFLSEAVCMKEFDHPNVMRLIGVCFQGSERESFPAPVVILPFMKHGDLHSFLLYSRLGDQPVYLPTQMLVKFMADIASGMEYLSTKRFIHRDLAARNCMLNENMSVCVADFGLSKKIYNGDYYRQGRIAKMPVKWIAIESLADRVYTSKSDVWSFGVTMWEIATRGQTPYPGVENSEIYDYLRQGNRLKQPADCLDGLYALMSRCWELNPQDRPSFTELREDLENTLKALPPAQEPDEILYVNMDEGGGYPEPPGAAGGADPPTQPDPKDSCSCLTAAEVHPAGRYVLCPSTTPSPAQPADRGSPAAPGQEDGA
T11 sequence (P14616 27-1297): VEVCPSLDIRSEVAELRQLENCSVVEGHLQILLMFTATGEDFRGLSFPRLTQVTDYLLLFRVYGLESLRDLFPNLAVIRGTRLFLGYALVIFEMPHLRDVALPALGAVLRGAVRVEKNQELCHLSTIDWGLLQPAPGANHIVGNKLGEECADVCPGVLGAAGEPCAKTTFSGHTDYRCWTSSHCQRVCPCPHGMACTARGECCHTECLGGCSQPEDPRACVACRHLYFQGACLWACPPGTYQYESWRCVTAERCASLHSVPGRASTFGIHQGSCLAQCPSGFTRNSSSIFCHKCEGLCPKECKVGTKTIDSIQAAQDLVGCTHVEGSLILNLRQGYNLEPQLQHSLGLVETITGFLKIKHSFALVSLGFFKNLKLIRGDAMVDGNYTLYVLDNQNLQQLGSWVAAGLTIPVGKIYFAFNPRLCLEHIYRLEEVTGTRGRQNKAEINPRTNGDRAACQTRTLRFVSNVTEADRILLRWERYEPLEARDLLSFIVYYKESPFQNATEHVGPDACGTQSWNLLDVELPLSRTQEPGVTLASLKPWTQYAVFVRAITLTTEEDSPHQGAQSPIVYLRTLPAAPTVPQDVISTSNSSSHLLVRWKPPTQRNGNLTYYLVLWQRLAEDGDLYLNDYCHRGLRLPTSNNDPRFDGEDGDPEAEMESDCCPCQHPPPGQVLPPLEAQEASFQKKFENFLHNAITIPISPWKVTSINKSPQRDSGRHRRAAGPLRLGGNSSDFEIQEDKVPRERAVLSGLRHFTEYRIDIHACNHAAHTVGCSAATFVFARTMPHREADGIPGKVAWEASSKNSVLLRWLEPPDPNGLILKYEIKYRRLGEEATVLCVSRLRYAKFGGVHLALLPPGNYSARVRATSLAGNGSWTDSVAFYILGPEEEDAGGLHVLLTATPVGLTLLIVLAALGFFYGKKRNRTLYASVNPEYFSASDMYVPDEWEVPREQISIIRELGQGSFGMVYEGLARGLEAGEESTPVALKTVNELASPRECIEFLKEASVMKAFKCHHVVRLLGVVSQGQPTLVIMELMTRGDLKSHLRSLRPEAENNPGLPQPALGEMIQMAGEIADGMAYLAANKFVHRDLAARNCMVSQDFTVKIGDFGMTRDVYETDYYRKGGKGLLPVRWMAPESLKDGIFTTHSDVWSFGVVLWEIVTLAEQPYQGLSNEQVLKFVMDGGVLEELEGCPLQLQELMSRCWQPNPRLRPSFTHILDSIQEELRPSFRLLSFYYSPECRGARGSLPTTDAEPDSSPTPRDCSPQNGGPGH
T3 sequence (P51813 whole entry): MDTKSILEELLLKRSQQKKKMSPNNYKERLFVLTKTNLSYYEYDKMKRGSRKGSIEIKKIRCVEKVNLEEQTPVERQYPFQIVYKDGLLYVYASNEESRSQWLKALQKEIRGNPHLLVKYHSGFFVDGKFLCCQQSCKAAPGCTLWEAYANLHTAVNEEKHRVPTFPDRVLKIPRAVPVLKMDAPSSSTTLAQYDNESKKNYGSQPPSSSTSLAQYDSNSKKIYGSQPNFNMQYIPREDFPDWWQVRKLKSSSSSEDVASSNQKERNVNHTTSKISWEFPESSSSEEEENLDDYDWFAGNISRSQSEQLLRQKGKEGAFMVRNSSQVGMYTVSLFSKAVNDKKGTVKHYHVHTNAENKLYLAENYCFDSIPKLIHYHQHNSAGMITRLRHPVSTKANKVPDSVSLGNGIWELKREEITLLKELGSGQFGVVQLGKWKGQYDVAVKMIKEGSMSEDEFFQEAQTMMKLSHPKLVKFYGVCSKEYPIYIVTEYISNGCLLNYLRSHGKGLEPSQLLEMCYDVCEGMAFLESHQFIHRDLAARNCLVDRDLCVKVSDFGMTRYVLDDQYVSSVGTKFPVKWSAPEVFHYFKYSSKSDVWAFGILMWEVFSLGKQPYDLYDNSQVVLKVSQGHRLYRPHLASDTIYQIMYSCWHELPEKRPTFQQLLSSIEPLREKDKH

A word on the EC50: it is the midpoint of the concentration-response curve. As to `CN(C)CCCNc1ccc2ncn3c4ccc5[nH]ncc5c4c(=O)c1c23` [Compound (IV)], the EC50 in [1] (ADRBK2 (BARK2, GRK3), estimated, abridged dose response curve, read-out: Kinase inhibitory activity EC50) was above 5 µM; in [2], 4.44 µM; in assay [3], 3.23 µM; in assay [4], above 5 µM; in assay [5] (DYRK4, estimated, abridged dose response curve, read-out: Kinase inhibitory activity EC50) it was above 5 µM; in assay [6], 0.367 µM. Besides, the EC50 was 0.008 µM in assay [7]; 1.49 µM in assay [8]; above 5 µM in assay [9] (GRK4, estimated, abridged dose response curve, read-out: Kinase inhibitory activity EC50); 1.31 µM in assay [10]; 1.15 µM in [11]; above 5 µM in [12]. The results for the EC50 in [13], in [14] and in [15] were above 5 µM, 2.13 µM and 2.02 µM, respectively.
`CCN(CC)CCNc1ccc2ncn3c4ccc(O)cc4c(=O)c1c23` [Symadex, 5-(2-(diethylamino)ethylamino)-8-hydroxy-6H-imidazo[4,5,1-de]acridin-6-one, reference compound]: the EC50 in [1] is above 5 µM; in [2], 3.77 µM; in assay [3] it was above 5 µM; in [4] it was above 5 µM; in [5] it was above 5 µM; in assay [6], 1.27 µM. The EC50 in [7] was 0.015 µM; in assay [8], 3.96 µM; in [9], above 5 µM; in assay [10] it was 1.82 µM; in [11], above 5 µM; in assay [12], above 5 µM. Further, the values for the EC50 in [13], in assay [14] and in assay [15] were above 5 µM, above 5 µM and 1.95 µM, respectively.
